The target of assay [1] is T1, (His)6-tagged α8/β8 thermosome (Ht thermosome, αK144Ht) (Thermoplasma acidophilum, UniProt P48424+P48425).
T1 construct: gene thsA; full-length alpha with internal His6 inserted after Lys144, untagged beta; co-expressed in E. coli; α8/β8 hexadecamer, about 960 kDa
Kind of assay: coupled enzymatic steady-state ATPase assay. Format: biochemical. The following applies: 55 °C; tighter site of a two-site fit; read-out: KM1.

Assay [2] deals with T2, thermosome α subunit with a (His)6-tag downstream Lys144 (αK144Ht) (Thermoplasma acidophilum, UniProt P48424 1-545).
T2 construct: thermosome α subunit, Thermoplasma acidophilum, P48424; synthetic gene (Invitrogen) with six histidines inserted downstream of Lys144, in the loop between beta sheet β4 and alpha helix α6; Eight copies stand in the α8/β8 hexadecamer; also called K144-(His)6 α-subunit; (His)6-tagged α subunit; source: E. coli BL21(DE3) Codon Plus-RIL, co-expressed with the β subunit from the construct …
T2 sequence: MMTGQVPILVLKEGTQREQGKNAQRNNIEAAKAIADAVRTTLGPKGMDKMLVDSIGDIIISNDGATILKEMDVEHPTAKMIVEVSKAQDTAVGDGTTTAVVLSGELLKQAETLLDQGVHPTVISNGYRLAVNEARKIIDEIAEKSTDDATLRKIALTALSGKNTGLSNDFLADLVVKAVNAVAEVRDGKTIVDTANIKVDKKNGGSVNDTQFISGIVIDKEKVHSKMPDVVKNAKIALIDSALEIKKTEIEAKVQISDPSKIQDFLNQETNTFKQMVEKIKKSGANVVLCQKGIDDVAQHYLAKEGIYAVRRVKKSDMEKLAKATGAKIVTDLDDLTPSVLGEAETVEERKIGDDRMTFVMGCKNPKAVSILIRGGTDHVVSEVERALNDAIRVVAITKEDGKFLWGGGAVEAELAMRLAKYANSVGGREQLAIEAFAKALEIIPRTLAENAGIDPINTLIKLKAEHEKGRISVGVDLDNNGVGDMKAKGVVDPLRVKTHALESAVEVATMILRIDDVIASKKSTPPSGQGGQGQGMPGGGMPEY
Description: SEC; peak from the affinity column run on Superose 6 (or HiLoad 26/600 Superdex 200) in 25 mM TrisHCl, 150 mM NaCl, 5 mM EDTA pH 7.5, room temperature; single peak of about 960 kDa to 1 MDa (hexadecamer); SDS-PAGE of the peak; subunits co-expressed and co-purified. Conditions: both partners purified. (Size exclusion chromatography separates by hydrodynamic size, large species first.)

On to `Nc1ncnc2c1ncn2[C@@H]1O[C@H](COP(=O)(O)OP(=O)(O)OP(=O)(O)O)[C@@H](O)[C@H]1O` [ATP], for which the Km in assay [1] worked out at 15 µM.

B1: thermosome β subunit (natural protein, Thermoplasma acidophilum)
chain: MIAGQPIFILKEGTKRESGKDAMKENIEAAIAISNSVRSSLGPRGMDKMLVDSLGDIVITNDGVTILKEMDVEHPAAKMMVEVSKTQDSFVGDGTTTAVIIAGGLLQQAQGLINQNVHPTVISEGYRMASEEAKRVIDEISTKIGADEKALLLKMAQTSLNSKSASVAKDKLAEISYEAVKSVAELRDGKYYVDFDNIQVVKKQGGAIDDTQLINGIIVDKEKVHPGMPDVVKDAKIALLDAPLEIKKPEFDTNLRIEDPSMIQKFLAQEENMLREMVDKIKSVGANVVITQKGIDDMAQHYLSRAGIYAVRRVKKSDMDKLAKATGASIVSTIDEISSSDLGTAERVEQVKVGEDYMTFVTGCKNPKAVSILVRGETEHVVDEMERSITDSLHVVASALEDGAYAAGGGATAAEIAFRLRSYAQKIGGRQQLAIEKFADAIEEIPRALAENAGLDPIDILLKLRAEHAKGNKTYGINVFTGEIEDMVKNGVIEPIRVGKQAIESATEAAIMILRIDDVIATKSSSSSSNPPKSGSSSESSED
notes: thermosome β subunit, Thermoplasma acidophilum, P48425; untagged; Eight copies stand in the α8/β8 hexadecamer; also called un-tagged β-subunit; source: E. coli BL21(DE3) Codon Plus-RIL, co-expressed in tandem with the α subunit (αK144HTTherm or pETTherm α/β); in lysate, then purified with the complex
As for B1, the “stoichiometry N” value in assay [2] is 1 α:β ratio.

The values above are taken from PMC4746591, “Internal (His)6-tagging delivers a fully functional hetero-oligomeric class II chaperonin in high yield” (Scientific Reports, 2016).
